Source: PubChem BioAssay AID977624 (Broad Institute, 2014)
Inconclusive results are not listed. The source made the active and inactive calls.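 The calls were made as follows: active = compound lowering the normal-ribosome reporter at least twice as much as the humanized-ribosome reporter, growth loss under a set limit; inconclusive = no clear call, values can overlap the other calls; inactive = the rest.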

Tests used:
[1] = system: E. coli mixed culture (wild-type GFP + h34 RFP) total growth, OD600, 24 h; experiment: wild-type E. coli growth inhibition versus h34 humanized strain – h34 mutant RFP, wild-type GFP, cherry-pick, dose response (AID 977624);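 also: wild-type GFP strain co-cultured with humanized h34 ribosome RFP strain in same well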; conditions: E. coli mixed culture (wild-type GFP + h34 RFP), 24 h; measured here: total OD600 growth
[2] = system: E. coli wild-type GFP strain growth, fluorescence, 24 h; experiment: as above

## O=C(O)c1cc(-c2ccc(Cl)s2)nc2ccccc12
[1]
  AC50: > 100 µM
[2]
  AC50: > 100 µM (inactive)

## Clc1ccc2nc(CN3CCCc4ccccc43)cn2c1
[1]
  AC50: 36.1 µM
[2]
  AC50: > 100 µM (inactive)

## CCOC(=O)c1nc(C)sc1-c1ccnn1S(=O)(=O)c1cccc(Cl)c1
[1]
  AC50: 52.2 µM
[2]
  AC50: > 100 µM (inactive)

## Cc1cc(C)cc(NC(=O)c2cccc(NC(=O)c3ccco3)c2)c1
[1]
  AC50: > 100 µM
[2]
  AC50: > 100 µM (inactive)

## Cc1ccsc1C(=O)C1CCCN(Cc2cc(F)ccc2-n2cccn2)C1 (stereo unspecified)
[1]
  AC50: > 100 µM
[2]
  AC50: > 100 µM (inactive)

## O=c1[nH]c(C2CCN(S(=O)(=O)c3ccc4c(c3)OCCO4)CC2)nc2c1nnn2Cc1ccccc1F
[1]
  AC50: > 100 µM
[2]
  AC50: > 100 µM (inactive)

## O=C1c2cccc(OCC(=O)N3CCCc4ccccc43)c2CCN1Cc1cccnc1
[1]
  AC50: > 100 µM
[2]
  AC50: > 100 µM (inactive)

## Cn1nc(C(=O)Nc2cccc(S(=O)(=O)N3CCCCC3)c2)c2ccccc2c1=O
[1]
  AC50: > 100 µM
[2]
  AC50: > 100 µM (inactive)

## CC(=O)N1CCN(c2cc(N3CCCC3)c(F)cc2[N+](=O)[O-])CC1
[1]
  AC50: > 100 µM
[2]
  AC50: > 100 µM (inactive)

## CN(CCOc1ccccc1)C(=O)c1ccc(OC2CCN(C(=O)C3CC3)CC2)cc1
[1]
  AC50: > 100 µM
[2]
  AC50: > 100 µM (inactive)

## COc1ccc(-c2nc(NC(C)=O)sc2-c2ccccc2)cc1
[1]
  AC50: > 100 µM
[2]
  AC50: > 100 µM (inactive)

## O=C1NC(CCc2ccccc2)C(=O)N1Cc1cccc2ccccc12 (stereo unspecified)
[1]
  AC50: > 100 µM
[2]
  AC50: > 100 µM (inactive)

## Cc1sc2ncnc(N3CCCC(C)C3)c2c1C (stereo unspecified)
[1]
  AC50: > 100 µM
[2]
  AC50: > 100 µM (inactive)

## c1ccc(-n2c(SCc3nc(-c4cccs4)no3)nnc2-c2ccco2)cc1
[1]
  AC50: > 100 µM
[2]
  AC50: > 100 µM (inactive)

## Cc1cc(NC(=O)CN2CCN(c3cccc(Cl)c3)CC2)no1
[1]
  AC50: 29.5 µM
[2]
  AC50: > 100 µM (inactive)

## COc1ccc(NC(=O)Nc2cccc3c2O[C@H](CN(C)S(=O)(=O)c2ccc(Cl)cc2)[C@H](C)CN([C@@H](C)CO)C3=O)cc1
[1]
  AC50: > 100 µM
[2]
  AC50: > 52 µM (inactive)

## Cc1ccc(Cl)cc1N1CCN(C(=O)c2ccc3nc[nH]c3c2)CC1
[1]
  AC50: > 100 µM
[2]
  AC50: > 100 µM (inactive)

## O=C(Nc1cccc(Oc2ccc3c(c2)C(=O)NC3=O)c1)c1cccs1
[1]
  AC50: > 100 µM
[2]
  AC50: > 100 µM (inactive)

## CCCCNc1ccc2c(c1)OC[C@@H](Cc1ccccc1)NS2(=O)=O
[1]
  AC50: 44.4 µM
[2]
  AC50: > 100 µM (inactive)

## O=C(Cc1c(Cl)cccc1Cl)Nc1cccc(S(=O)(=O)N2CCOCC2)c1
[1]
  AC50: 48.6 µM
[2]
  AC50: > 100 µM (inactive)

## O=C(c1cnc(Cc2c[nH]c3ccccc23)c(I)c1)N1CCCCC1
[1]
  AC50: > 100 µM
[2]
  AC50: > 100 µM (inactive)

## Cc1ccc(C2(c3noc(CN(C)Cc4cccnc4)n3)CCCC2)cc1
[1]
  AC50: > 100 µM
[2]
  AC50: > 100 µM (inactive)

## COc1cccc(N2CCN(c3ccc(S(=O)(=O)N4CCN(C)CC4)cc3[N+](=O)[O-])CC2)c1
[1]
  AC50: > 100 µM
[2]
  AC50: > 100 µM (inactive)

## O=C(CC1C(=O)NCCN1CC1CCCCC1)NCc1ccc(F)cc1F (stereo unspecified)
[1]
  AC50: > 100 µM

## CCOC(=O)c1cc(-c2ccc(OC)cc2)n[nH]1
[1]
  AC50: > 100 µM

## CCSc1nc2ccccc2c(=O)n1CCc1ccc(OC)c(OC)c1
[1]
  AC50: > 100 µM

## CC(=O)Nc1cccc(-c2ccnc3c2CC(C(=O)Nc2ccc4c(c2)OCO4)O3)c1 (stereo unspecified)
[1]
  AC50: > 100 µM

## O=C(c1ccc2c(c1)CCN2S(=O)(=O)c1ccccc1)N1CCN(c2ccccc2)CC1
[1]
  AC50: > 100 µM

## Cc1ccccc1COc1ccc(-c2nn[nH]n2)cc1
[1]
  AC50: > 100 µM

## CCOC(=O)c1c(C)[nH]c(C)c1S(=O)(=O)NCCN1CCN(c2ccccc2F)CC1
[1]
  AC50: > 100 µM

## Cc1cccc(-c2ccc([C@H]3[C@H](CO)N4CCCCN(S(=O)(=O)c5ccccc5C)C[C@@H]34)cc2)c1
[1]
  AC50: > 52 µM

## COc1ccccc1NC(=O)CSc1nccn1Cc1ccc(F)cc1
[1]
  AC50: > 100 µM

## CC(=O)c1cccc(NC(=O)COC(=O)CCC(=O)c2ccc(F)cc2)c1
[1]
  AC50: > 100 µM
